According to patent US20180303809A1, “TREATMENT OF BURN PAIN BY TRPV1 MODULATORS” (Purdue Pharma L.P., priority 2013, published 2018):

Assays:
Assay type in all cases: in vivo, rat
male Sprague-Dawley rats [1] = assay: Paw pressure assay, mechanical hyperalgesia (PWT) in thermal burn pain model; conditions: for % Decrease from Baseline (mean ± S.E.M.) of Paw Withdrawal Threshold / Paw Withdrawal Threshold (g) (mean ± S.E.M.): rat burn injury 55° C. 24 s
Description: (§1) Test Animals: Each experiment used male Sprague-Dawley rats weighing between 190-260 g at the time of thermal burn injury. The rats were housed two per cage, and were allowed to acclimate to their environment for at least six days before testing began. The rats had free access to food and water at all times, except during testing and prior to oral (PO) administration of a test compound, when food was removed about 16 hours before dosing. The rats were divided into treatment groups, and one of the following compounds was administered to each group at the dose and by the route of administration indicated in Tables 5.2A to 5.2C, 5.3A and 5.3B, and 5.4A and 5.4B: ketorolac (Sigma-Aldrich, St. Louis, Mo.), AMG 517 (selective TRPV1 antagonist described in Em. Doherty et al., “Novel vanilloid receptor-1 antagonists:2. Structure-activity relationships of 4-oxopyrimidines leading to the selection of a clinical candidate,” J Med Chem 50:3515-3527 (2007).) (Purdue Pharma L. P., Cranbury, N.J.), indomethacin (Alexis Biochemicals, Farmingdale, N.Y.), gabapentin (Bosche Scientific, New Brunswick, N.J.), or (S)-3-chloro-5-(1,2-dihydroxyethyl)-N-(5-(trifluoromethyl)pyridin-2-yl)-5′,6′-dihydro-[2,4′-bipyridine]-1′(2′H)-carboxamide (Compound 1). The control groups were administered the vehicle for the compound of formula (I). The volume of administration for PO treatment was 5 ml/kg, and was the same for all treatment groups. Volume of administration for intraperitoneal (i.p.) drug administration was 2 ml/kg.
(§2) To assess the actions of a compound of formula (I) for the treatment or prevention of burn pain, a model of thermal burn pain was used. A thermal burn injury was induced under isofluorane/O2 inhalation anesthesia. To assess mechanical hyperalgesia and weight bearing, a thermal injury was produced by immersing the left hind paw into water maintained at 55° C. for 24 seconds. The left hind paw of non-injured control animals was immersed in 22° C. water for 24 seconds. To assess thermal hyperalgesia, a thermal injury was produced by immersing the left hindpaw into water maintained at 50° C. for 48 seconds; the left hind-paw of non-injured control animals was immersed in 22° C. water for 48 seconds. The animals were assessed for response to noxious mechanical stimuli by determining PWT for mechanical hyperalgesia, weight bearing difference between the injured or non-injured side, or response to noxious thermal stimuli by determining PWL for thermal hyperalgesia, all as described below, prior to drug administration (baseline), then again at 1, 3 and 5 hours after induction of burn injury.
The paw pressure assay was used to assess mechanical hyperalgesia. For this assay, hind paw withdrawal thresholds (PWT) to a noxious mechanical stimulus were determined using an analgesimeter (Model 7200, commercially available from Ugo Basile of Italy) as described in C. Stein, “Unilateral Inflammation of the Hindpaw in Rats as a Model of Prolonged Noxious Stimulation: Alterations in Behavior and Nociceptive Thresholds,” Pharmacol. Biochem. and Behavior 31:451-455 (1988). The rat's paw was placed on a small platform, and weight was applied in a graded manner up to a maximum of 250 grams. The endpoint was taken as the weight at which the paw was completely withdrawn. PWT was determined once for each rat at each time point, wherein the affected (ipsilateral; same side as the injury) rear paw was tested. […] All drug treatment groups were compared to the vehicle control group (i.e. injured, administered only the vehicle).

male Sprague-Dawley rats [2] = assay: Plantar test, thermal hyperalgesia (PWL) in thermal burn pain model; conditions: for % Change from Baseline (mean ± S.E.M.) of Paw Withdrawal Latency / Paw Withdrawal Latency (sec) (mean ± S.E.M.): rat burn injury 50° C. 48 s
Description: as §1, §2
The plantar test was used to assess thermal hyperalgesia. For this test, hind paw withdrawal latencies (PWL) to a noxious thermal stimulus were determined using a plantar test apparatus (commercially available from Ugo Basile of Italy) following the technique described by K. Hargreaves et al., “A New and Sensitive Method for Measuring Thermal Nociception in Cutaneous Hyperalgesia,” Pain 32(1):77-88 (1988). The maximum exposure time was set at 32 seconds to avoid tissue damage and any directed paw withdrawal from the heat source is taken as the end point. Three latencies were determined at each time point and averaged.

male Sprague-Dawley rats [3] = assay: Hind limb weight bearing (incapacitance meter, % WL) in thermal burn pain model; conditions: for % WL (mean ± S.E.M.), percentage of weight borne on the burn-injured left hind paw: rat burn injury 55° C. 24 s
Description: as §1, §2
A commercially available incapacitance meter was used to determine the weight distribution on the two hind paws of the animal (Linton Incapacitance Tester (Linton Instrumentation, Norfolk, UK)). The weight bearing difference (WBD) between the injured and non-injured hindpaw was measured. The animal was placed in the testing chamber that allows the animal to stand normally, distributing its body weight on the hind limbs for the test. Each hind paw was positioned on a separate pressure sensitive pad, which independently measures the pressure applied by each limb. The device continuously collects data after either a force threshold has been exceeded, or the investigator depresses the start pad. Rats were allowed to acclimate when placed on the apparatus, and when they were stationary, the force exerted was then continuously monitored for 3 s. The endpoint was the amount of pressure applied to each limb over time. Three readings were taken for each rat at each time point, and the average used for data analysis. WBD was expressed as “% WL”, i.e. the percentage of weight borne on the burn-injured left hind paw, using the following formula: […]
where WLP is the weight on the left hind paw and WRP is the weight on the right (untreated) hind paw. The 50% value of % WL corresponds to an equal weight distribution across both hind paws. […]

[4] = 3 mg/kg PO, 1 h after administration
[5] = 3 mg/kg PO, 3 h after administration
[6] = 3 mg/kg PO, 5 h after administration
[7] = 3 mg/kg PO, baseline (prior to drug administration)
[8] = 10 mg/kg PO, 1 h after administration
[9] = 10 mg/kg PO, 3 h after administration
[10] = 10 mg/kg PO, 5 h after administration
[11] = 10 mg/kg PO, baseline (prior to drug administration)
[12] = 30 mg/kg PO, 1 h after administration
[13] = 30 mg/kg PO, 3 h after administration
[14] = 30 mg/kg PO, 5 h after administration
[15] = 30 mg/kg PO, baseline (prior to drug administration)

SMILES: O=C(Nc1ccc(C(F)(F)F)cn1)N1CC=C(c2ncc([C@H](O)CO)cc2Cl)CC1 [Compound 1, (S)-3-chloro-5-(1,2-dihydroxyethyl)-N-(5-(trifluoromethyl)pyridin-2-yl)-5′,6′-dihydro-[2,4′-bipyridine]-1′(2′H)-carboxamide]
- % Decrease from Baseline (mean ± S.E.M.) of Paw Withdrawal Threshold (male Sprague-Dawley rats [1]; [4]): 59 ± 1.8%
- Paw Withdrawal Threshold (g) (mean ± S.E.M.) (male Sprague-Dawley rats [1]; [4]): 97 ± 4.5 g
- % Decrease from Baseline (mean ± S.E.M.) of Paw Withdrawal Threshold (male Sprague-Dawley rats [1]; [5]): 63.2 ± 2.1^ %
- Paw Withdrawal Threshold (g) (mean ± S.E.M.) (male Sprague-Dawley rats [1]; [5]): 88 ± 5.6 g
- % Decrease from Baseline (mean ± S.E.M.) of Paw Withdrawal Threshold (male Sprague-Dawley rats [1]; [6]): 63 ± 1.4%
- Paw Withdrawal Threshold (g) (mean ± S.E.M.) (male Sprague-Dawley rats [1]; [6]): 90 ± 4.0 g
- Paw Withdrawal Threshold (g) (mean ± S.E.M.) (male Sprague-Dawley rats [1]; [7]): 240 ± 8.4 g
- % Decrease from Baseline (mean ± S.E.M.) of Paw Withdrawal Threshold (male Sprague-Dawley rats [1]; [8]): 55 ± 3.2%
- Paw Withdrawal Threshold (g) (mean ± S.E.M.) (male Sprague-Dawley rats [1]; [8]): 108 ± 73^ g
- % Decrease from Baseline (mean ± S.E.M.) of Paw Withdrawal Threshold (male Sprague-Dawley rats [1]; [9]): 60 ± 3.2%
- Paw Withdrawal Threshold (g) (mean ± S.E.M.) (male Sprague-Dawley rats [1]; [9]): 97 ± 8.5 g
- % Decrease from Baseline (mean ± S.E.M.) of Paw Withdrawal Threshold (male Sprague-Dawley rats [1]; [10]): 66 ± 2.4%
- Paw Withdrawal Threshold (g) (mean ± S.E.M.) (male Sprague-Dawley rats [1]; [10]): 83 ± 5.4 g
- Paw Withdrawal Threshold (g) (mean ± S.E.M.) (male Sprague-Dawley rats [1]; [11]): 243 ± 6.5 g
- % Decrease from Baseline (mean ± S.E.M.) of Paw Withdrawal Threshold (male Sprague-Dawley rats [1]; [12]): 37 ± 2.5 %
- Paw Withdrawal Threshold (g) (mean ± S.E.M.) (male Sprague-Dawley rats [1]; [12]): 153 ± 4.4 g
- % Decrease from Baseline (mean ± S.E.M.) of Paw Withdrawal Threshold (male Sprague-Dawley rats [1]; [13]): 42 ± 4.5 %
- Paw Withdrawal Threshold (g) (mean ± S.E.M.) (male Sprague-Dawley rats [1]; [13]): 141 ± 9.0 g
- % Decrease from Baseline (mean ± S.E.M.) of Paw Withdrawal Threshold (male Sprague-Dawley rats [1]; [14]): 61 ± 2.0^ %
- Paw Withdrawal Threshold (g) (mean ± S.E.M.) (male Sprague-Dawley rats [1]; [14]): 95 ± 4.5 g
- Paw Withdrawal Threshold (g) (mean ± S.E.M.) (male Sprague-Dawley rats [1]; [15]): 244 ± 6.0^ g
- Effect on mechanical hyperalgesia associated with the burn injury (male Sprague-Dawley rats [1]; rat, 30 mg/kg): significantly reduced mechanical hyperalgesia
- Effect on thermal hyperalgesia (male Sprague-Dawley rats [2]; rat burn injury): did not significantly affect thermal hyperalgesia
- % Change from Baseline (mean ± S.E.M.) of Paw Withdrawal Latency (male Sprague-Dawley rats [2]; [4]): −45.8 ± 14.53%
- Paw Withdrawal Latency (sec) (mean ± S.E.M.) (male Sprague-Dawley rats [2]; [4]): 8.1 ± 0.77 s
- % Change from Baseline (mean ± S.E.M.) of Paw Withdrawal Latency (male Sprague-Dawley rats [2]; [5]): −34.4 ± 7.57%
- Paw Withdrawal Latency (sec) (mean ± S.E.M.) (male Sprague-Dawley rats [2]; [5]): 9.2 ± 0.99 s
- % Change from Baseline (mean ± S.E.M.) of Paw Withdrawal Latency (male Sprague-Dawley rats [2]; [6]): −35.7 ± 15.81%
- Paw Withdrawal Latency (sec) (mean ± S.E.M.) (male Sprague-Dawley rats [2]; [6]): 9.9 ± 0.70 s
- Paw Withdrawal Latency (sec) (mean ± S.E.M.) (male Sprague-Dawley rats [2]; [7]): 14.5 ± 1.22 s
- % Change from Baseline (mean ± S.E.M.) of Paw Withdrawal Latency (male Sprague-Dawley rats [2]; [8]): −36.0 ± 11.15%
- Paw Withdrawal Latency (sec) (mean ± S.E.M.) (male Sprague-Dawley rats [2]; [8]): 8.9 ± 1.08 s
- % Change from Baseline (mean ± S.E.M.) of Paw Withdrawal Latency (male Sprague-Dawley rats [2]; [9]): −19.7 ± 10.24%
- Paw Withdrawal Latency (sec) (mean ± S.E.M.) (male Sprague-Dawley rats [2]; [9]): 12.0 ± 0.66 s
- % Change from Baseline (mean ± S.E.M.) of Paw Withdrawal Latency (male Sprague-Dawley rats [2]; [10]): −22.5 ± 9.23%
- Paw Withdrawal Latency (sec) (mean ± S.E.M.) (male Sprague-Dawley rats [2]; [10]): 11.3 ± 0.98 s
- Paw Withdrawal Latency (sec) (mean ± S.E.M.) (male Sprague-Dawley rats [2]; [11]): 14.4 ± 1.17 s
- % Change from Baseline (mean ± S.E.M.) of Paw Withdrawal Latency (male Sprague-Dawley rats [2]; [12]): −34.3 ± 6.08%
- Paw Withdrawal Latency (sec) (mean ± S.E.M.) (male Sprague-Dawley rats [2]; [12]): 7.8 ± 0.73 s
- % Change from Baseline (mean ± S.E.M.) of Paw Withdrawal Latency (male Sprague-Dawley rats [2]; [13]): −15.7 ± 10.29%
- Paw Withdrawal Latency (sec) (mean ± S.E.M.) (male Sprague-Dawley rats [2]; [13]): 11.5 ± 1.04 s
- % Change from Baseline (mean ± S.E.M.) of Paw Withdrawal Latency (male Sprague-Dawley rats [2]; [14]): −16.6 ± 8.94%
- Paw Withdrawal Latency (sec) (mean ± S.E.M.) (male Sprague-Dawley rats [2]; [14]): 11.2 ± 0.81 s
- Paw Withdrawal Latency (sec) (mean ± S.E.M.) (male Sprague-Dawley rats [2]; [15]): 13.7 ± 0.92 s
- Effect on weight bearing (male Sprague-Dawley rats [3]; rat burn injury): did not significantly affect weight bearing
- % WL (mean ± S.E.M.), percentage of weight borne on the burn-injured left hind paw (male Sprague-Dawley rats [3]; [4]): 24.4 ± 4.44%
- % WL (mean ± S.E.M.), percentage of weight borne on the burn-injured left hind paw (male Sprague-Dawley rats [3]; [5]): 42.0 ± 4.51%
- % WL (mean ± S.E.M.), percentage of weight borne on the burn-injured left hind paw (male Sprague-Dawley rats [3]; [6]): 49.5 ± 3.60%
- % WL (mean ± S.E.M.), percentage of weight borne on the burn-injured left hind paw (male Sprague-Dawley rats [3]; [7]): 50.6 ± 0.62%
- % WL (mean ± S.E.M.), percentage of weight borne on the burn-injured left hind paw (male Sprague-Dawley rats [3]; [8]): 37.6 ± 2.54%
- % WL (mean ± S.E.M.), percentage of weight borne on the burn-injured left hind paw (male Sprague-Dawley rats [3]; [9]): 47.3 ± 1.92%
- % WL (mean ± S.E.M.), percentage of weight borne on the burn-injured left hind paw (male Sprague-Dawley rats [3]; [10]): 49.0 ± 2.15%
- % WL (mean ± S.E.M.), percentage of weight borne on the burn-injured left hind paw (male Sprague-Dawley rats [3]; [11]): 50.6 ± 0.71%
- % WL (mean ± S.E.M.), percentage of weight borne on the burn-injured left hind paw (male Sprague-Dawley rats [3]; [12]): 31.4 ± 3.92%
- % WL (mean ± S.E.M.), percentage of weight borne on the burn-injured left hind paw (male Sprague-Dawley rats [3]; [13]): 50.3 ± 2.07%
- % WL (mean ± S.E.M.), percentage of weight borne on the burn-injured left hind paw (male Sprague-Dawley rats [3]; [14]): 55.6 ± 3.03%
- % WL (mean ± S.E.M.), percentage of weight borne on the burn-injured left hind paw (male Sprague-Dawley rats [3]; [15]): 50.3 ± 0.53%
